The source of these data is patent US20260374756A1, “HETEROCYCLIC COMPOUNDS AS INHIBITORS OF MONOACYLGLYCEROL LIPASE (MAGL)” (Hoffmann-La Roche Inc., priority 2022, published 2026).

Each structure is given as a SMILES string.

This assay deals with T1, hMAGL (Homo sapiens, UniProt Q99685).
T1 sequence (Q99685 1-303): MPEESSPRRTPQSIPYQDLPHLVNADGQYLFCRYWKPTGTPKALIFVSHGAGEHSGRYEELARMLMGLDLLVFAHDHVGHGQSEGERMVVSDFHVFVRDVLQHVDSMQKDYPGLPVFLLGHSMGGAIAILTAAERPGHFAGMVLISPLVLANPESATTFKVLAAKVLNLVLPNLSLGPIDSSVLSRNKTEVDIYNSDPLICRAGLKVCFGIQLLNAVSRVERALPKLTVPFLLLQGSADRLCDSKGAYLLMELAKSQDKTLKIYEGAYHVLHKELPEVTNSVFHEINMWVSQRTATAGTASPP
The experiment in a line: 2-AG assay: MAGL inhibition, hydrolysis of 2-arachidonoylglycerol to arachidonic acid followed by mass spectrometry. The class given is biochemical. The method in brief:
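MAGL preincubated with compound 15 min at RT in 50 mM Tris, 1 mM EDTA, 0.01% Tween-20, 2.5% DMSO; reaction started with 8 μM 2-AG (final), […], 30 min at RT. Quenched with acetonitrile containing d8-arachidonic acid; arachidonic acid quantified by RapidFire SPE-triple quad MS as arachidonic acid/d8 ratio.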
One may read the IC50 as the concentration that inhibits the measured activity by half. Low values mean greater potency in that assay, high ones weaker potency in that assay. In turn, `O=C(N1CC2(CC(n3cnc(C4CC4)n3)C2)C1)N1CC2(CN(Cc3ncoc3C(F)(F)F)C2)C1` [Example 221, [6-(3-cyclopropyl-1,2,4-triazol-1-yl)-2-azaspiro[3.3]heptan-2-yl]-[6-[[5-(trifluoromethyl)oxazol-4-yl]methyl]-2,6-diazaspiro[3.3]heptan-2-yl]methanone] gave an IC50 of 0.0326 µM.

`O=C(N1CC2(CC(n3cnc(C(F)(F)F)n3)C2)C1)N1CC2(CN(Cc3ccnn3CC(F)(F)F)C2)C1` [Example 222] returned an IC50 of 0.205 µM.

`O=C(N1CC2(CC(n3cnc(C4CC4)n3)C2)C1)N1CC2(CN(Cc3ccnn3CC(F)(F)F)C2)C1` [Example 223, [6-(3-cyclopropyl-1,2,4-triazol-1-yl)-2-azaspiro[3.3]heptan-2-yl]-[6-[[2-(2,2,2-trifluoroethyl)pyrazol-3-yl]methyl]-2,6-diazaspiro[3.3]heptan-2-yl]methanone] returned an IC50 of 0.0692 µM.

As to `O=C(N1CC2(CC(c3cc(C4CC4)n[nH]3)C2)C1)N1CC2(CN(Cc3ccnn3C(F)(F)F)C2)C1` [Example 224, [6-(3-cyclopropyl-1H-pyrazol-5-yl)-2-azaspiro[3.3]heptan-2-yl]-[6-[[2-(trifluoromethyl)pyrazol-3-yl]methyl]-2,6-diazaspiro[3.3]heptan-2-yl]methanone], the IC50 was found to be 0.0202 µM.

In the case of `O=C(N1CC2(CC(n3cnc(C(F)(F)F)n3)C2)C1)N1CC2(CN(Cc3ccnn3C(F)(F)F)C2)C1` [Example 225, [6-[[2-(trifluoromethyl)pyrazol-3-yl]methyl]-2,6-diazaspiro[3.3]heptan-2-yl]-[6-[3-(trifluoromethyl)-1,2,4-triazol-1-yl]-2-azaspiro[3.3]heptan-2-yl]methanone], the IC50 was 0.146 µM.

As for `O=C(N1CC2(CC(n3cnc(C4CC4)n3)C2)C1)N1CC2(CN(Cc3ccnn3C(F)(F)F)C2)C1` [Example 226, [6-(3-cyclopropyl-1,2,4-triazol-1-yl)-2-azaspiro[3.3]heptan-2-yl]-[6-[[2-(trifluoromethyl)pyrazol-3-yl]methyl]-2,6-diazaspiro[3.3]heptan-2-yl]methanone], the half-inhibitory concentration (IC50) was determined as 0.0346 µM.

Take `Cn1ncc(P(C)(C)=O)c1CN1CC2(C1)CN(C(=O)N1CC3(CC(n4cnc(C(F)(F)F)n4)C3)C1)C2` [Example 227, [6-[(4-dimethylphosphoryl-2-methyl-pyrazol-3-yl)methyl]-2,6-diazaspiro[3.3]heptan-2-yl]-[6-[3-(trifluoromethyl)-1,2,4-triazol-1-yl]-2-azaspiro[3.3]heptan-2-yl]methanone]: the 50% inhibitory concentration (IC50) was 1.38 µM.

In turn, `Cn1ncc(P(C)(C)=O)c1CN1CC2(C1)CN(C(=O)N1CC3(CC(n4cnc(C5CC5)n4)C3)C1)C2` [Example 228, [6-(3-cyclopropyl-1,2,4-triazol-1-yl)-2-azaspiro[3.3]heptan-2-yl]-[6-[(4-dimethylphosphoryl-2-methyl-pyrazol-3-yl)methyl]-2,6-diazaspiro[3.3]heptan-2-yl]methanone] had a half-inhibitory concentration (IC50) of 0.21 µM.

Regarding `O=C(N1CC2(CC(n3cnc(C(F)(F)F)n3)C2)C1)N1CC2(CN(Cc3nc(C(F)(F)F)n[nH]3)C2)C1` [Example 229, [6-[3-(trifluoromethyl)-1,2,4-triazol-1-yl]-2-azaspiro[3.3]heptan-2-yl]-[6-[[3-(trifluoromethyl)-1H-1,2,4-triazol-5-yl]methyl]-2,6-diazaspiro[3.3]heptan-2-yl]methanone], the IC50 worked out at 1.2 µM. This IC50 is about 5.7-fold higher than that of the molecule before.

Molecule `O=C(N1CC2(CC(n3cnc(C4CC4)n3)C2)C1)N1CC2(CN(Cc3nc(C(F)(F)F)n[nH]3)C2)C1` [Example 230, [6-(3-cyclopropyl-1,2,4-triazol-1-yl)-2-azaspiro[3.3]heptan-2-yl]-[6-[[3-(trifluoromethyl)-1H-1,2,4-triazol-5-yl]methyl]-2,6-diazaspiro[3.3]heptan-2-yl]methanone] showed an IC50 of 0.672 µM.
